This note sets out measurements from patent US9410128B2, “Method and compounds for generation of iPSCs” (Sanford-Burnham Medical Research Institute, priority 2011, dated 2016).

What all share (format): cell-based, mouse
In experiment [1] the test system is Oct4-EGFP MEFs. Kind of experiment: OSKM-induced reprogramming of Oct4-EGFP MEFs to iPS cells, GFP+ colony count. From the text: (§1) Oct4-EGFP MEFs were derived from the mouse strain B6; 129S4-Pou5f1^tm2(EGFP)Jae/J (The Jackson Laboratory, Bar Harbor, Me., USA, on the world wide web at jax.org/; stock #008214) following the protocol on the WiCell Research Institute, Madison, Wis., USA, on the world wide web at wicell.org/website. In brief, embryonic day 13.5 (E13.5) embryos were collected from timemated pregnant female mice and then tested for microbial contamination. Oct4-EGFP MEFs were maintained in MEF complete medium (Dulbecco's modified Eagle's medium [For DMEM or culture medium & materials: Gibco Cell Culture, Carlsbad, Calif., USA, on the world wide web at invitrogen.com/gibco] with 10% fetal bovine serum (FBS), nonessential amino acids, L-glutamine, and no sodium pyruvate). Cells passaged fewer than five times were used for induced reprogramming.
Reprogramming was conducted as described in Takahashi et al. (Cell 126: 663-676 (2006)). In brief, 4×10^4 Oct4-EGFP MEF were transduced with pMX retroviruses for ectopic expression of Oct4, Sox2, Klf4, and c-Myc (Addgene). Three days later, cells were fed ES medium (DMEM with 15% ES-screened FBS, nonessential amino acids, L-glutamine, monothioglycerol, and 1000 U/ml leukemia inhibitory factor (LIF)) and the media was changed every other day. Reprogrammed (EGFP+) cells were identified and scored by fluorescence microscopy two to three weeks post transduction, unless otherwise stated. To derive iPSCs, EGFP+ colonies were manually picked under a stereomicroscope (Leica Microsystems). In the case of small molecule treatment, indicated small molecules were applied to reprogramming cells on day four post-transduction and fresh medium was added every other day for at least two weeks or until EGFP+ colonies appeared.
For reprogramming, retrovirus expressing reprogramming factors (Oct4, Sox2, Klf4, and c-Myc) were added and the medium was then changed to complete medium next day. For overexpression of COX2 transgene, retroviruses expressing COX2 were added 1 day after OSKM transduction. siRNAs were introduced at day 5 post-transduction.

Experiment [2] deals with Oct4-EGFP MEFs. Nature of the experiment: OSK (without c-Myc) reprogramming of Oct4-EGFP MEFs, GFP+ colony count.
Excerpt: as §1
Reprogramming was conducted as described in Takahashi et al. (Cell 126: 663-676 (2006)). In brief, 4×10^4 Oct4-EGFP MEF were transduced with pMX retroviruses for ectopic expression of Oct4, Sox2, Klf4, and c-Myc (Addgene). […] Reprogrammed (EGFP+) cells were identified and scored by fluorescence microscopy two to three weeks post transduction, unless otherwise stated. […]

Experiment [3] has as its system Oct4-EGFP MEFs. Kind of experiment: Alkaline phosphatase (AP)+ colony formation during reprogramming. The note with it: molecules applied during reprogramming; data not shown. The protocol:
iPS cells were seeded and cultured on 0.1% gelatin-coated 6-well plates. Four days later, cells were fixed with 4% paraformadehyde (Electron Microscopy Sciences; Cat#15710-S). For immunofluorescence, fixed cells were permeabilized with 0.1% Triton X-100 in PBS and blocked with 5% BSA in PBS. SSEA-1 (R&D; Cat#MAB2155), Sox2 (R&D; Cat#MAB2018), and Nanog (R&D; Cat#AF2729) antibodies were used to detect ES markers. Nuclei were visualized by Hoechst 33342 (Invitrogen) staining. For AP staining, fixed cells were treated with alkaline phosphatase substrate following the manufacturer's instruction (Vector Laboratories; Cat#SK-5100).
All 17 molecules were tested by examining alkaline phosphatase (AP)+ colony formation during reprogramming while these molecules were applied. […] To that end, 6 molecules were picked including nabumetone, 4-hydroxytamoxifen (OHTM), corynanthine, moclobemide, NiSO4, and lectin—for further analysis (FIG. 2A). To evaluate their effect on induction of mature GFP+ iPS cells, OSKM-transduced Oct4-EGFP MEFs were treated four days after transduction with each of these factors separately.

The subject of experiment [4] is Sox2. Nature of the experiment: Endogenous Sox2 mRNA expression by real time qRT-PCR in OKM-transduced Oct4-EGFP MEFs. The note with it: OKM-transduced cells, compared with OKM+DMSO (FIG. 3E). The source says: To understand the molecular mechanism underlying OHTM's effect on reprogramming, the question of whether OHTM induces endogenous Sox2 expression was posed. To do so, OHTM or control DMSO was applied to Oct4-EGFP MEF four days after transduction with OKM. Cells were harvested at indicated time points for total RNA isolation and real time qRT-PCR analysis (FIG. 3E). […] However, the direct targets of OHTM to affect Sox2 expression were not clear.
Oct4-EGFP MEFs were transduced with OKM and treated with OHTM four days later. Cells were harvested at indicated days (D) for real time RT-PCR analysis. β actin expression serves as an internal control. Error bars represent standard deviation of 2˜3 independent experiments. * p value <0.05.
(Real-time PCR tracks product formation cycle by cycle.)

In experiment [5] the test system is Oct4-EGFP MEFs. Nature of the experiment: OKM (without Sox2) reprogramming of Oct4-EGFP MEFs, GFP+ colony count. The protocol:
Oct4-EGFP MEFs were derived from the mouse strain B6; 129S4-Pou5f1^tm2(EGFP)Jae/J (The Jackson Laboratory, Bar Harbor, Me., USA, on the world wide web at jax.org/; stock #008214) following the protocol on the WiCell Research Institute, Madison, Wis., USA, on the world wide web at wicell.org/website. In brief, embryonic day 13.5 (E13.5) embryos were collected from timemated pregnant female mice and then tested for microbial contamination. […]
Reprogramming was conducted as described in Takahashi et al. (Cell 126: 663-676 (2006)). […] Reprogrammed (EGFP+) cells were identified and scored by fluorescence microscopy two to three weeks post transduction, unless otherwise stated. […]
Oct4-EGFP MEFs were transduced with OKM and treated with pool of 6 molecules, including NiSO4, nabumetone, OHTM, moclobemide, lectin, and corynanthine, at day 4 for at least 10 days. GFP+ colonies were identified and counted as described in FIG. 1 at day 14. […]
Oct4-EGFP MEFs were transduced with OKM and four days later treated with 1.25 uM OHTM at least 10 days. GFP+ colonies were counted as described in FIG. 1 at day 15˜21. […]
Oct4-EGFP MEFs were transduced with OKM and four days later treated with 2.18 uM nabumetone (Nabu) for at least 10 days. GFP+ colonies were counted as described in FIG. 1 at day 17˜21. […]

`COc1ccc2c(c1)c(CC(=O)O)c(C)n2C(=O)c1ccc(Cl)cc1` [indomethacin]: the “effect on iPSC generation (EGFP+ colony number)” value is recorded as “no effect” in experiment [1] (applied day 4~5 post transduction, scored two weeks post transduction (FIG. 6A)) and “no effect” in experiment [2] (OSK, applied day 4~5 post transduction, scored two weeks post transduction (FIG. 6B)).

On to `COC(=O)[C@H]1[C@H]2C[C@H]3c4[nH]c5ccccc5c4CCN3C[C@@H]2CC[C@@H]1O.Cl` [Corynanthine hydrochloride], for which the “effect on AP+ colony formation” value in experiment [3] is on record as “not showing adverse effect”.

As for “4-hydroxytamoxifen [4-hydroxytamoxifen (OHTM)]”, the “induction of endogenous Sox2 mRNA” value in experiment [4] (day 12) amounted to 220%; in experiment [4] (day 16) it was 400%. For the same molecule, in experiment [5] (1.25 uM, day 15~21, vs OKM+DMSO (FIG. 3C)), the “effect on OKM-induced reprogramming” value is “significantly improved”. In addition, the “effect on AP+ colony formation” value in experiment [3] was “not showing adverse effect”.

In the case of `O=C(NCCN1CCOCC1)c1ccc(Cl)cc1` [Moclobemide], the “effect on AP+ colony formation” value in experiment [3] is “not showing adverse effect”.

With `COc1ccc2cc(CCC(C)=O)ccc2c1` [Nabumetone], in experiment [5] (2.18 uM, day 17~21 (FIG. 3D)), the “effect on OKM-induced reprogramming” value was “significantly improved”. The “effect on AP+ colony formation” value in experiment [3] is reported as “not showing adverse effect”. For the same molecule, the “enhancement of reprogramming efficiency” value in experiment [1] (in the presence of control siRNA (siNT), compared with DMSO treatment, day 12~14 (FIG. 2C)) is given as “more than 6 fold”. In addition, in experiment [1] (treated four days after transduction, compared with DMSO controls (FIG. 2B)), the “increase in number of reprogrammed (GFP+) colonies” value is recorded as “at least 2.8 fold”. The “enhancement of reprogramming by OSK” value in experiment [2] (OSK without c-Myc, treated four days after transduction, day 21, compared with OSK+DMSO (FIG. 3A)) is on record as around 2.5 fold.
